The target in one assay is T1, MPP1 (Homo sapiens, UniProt Q00013).
T1 construct: incubated with various concentrations of full-length MPP1; His tag (N); S-tag (N); made in house; host or cells: E. coli
T1 sequence (Q00013 1-466): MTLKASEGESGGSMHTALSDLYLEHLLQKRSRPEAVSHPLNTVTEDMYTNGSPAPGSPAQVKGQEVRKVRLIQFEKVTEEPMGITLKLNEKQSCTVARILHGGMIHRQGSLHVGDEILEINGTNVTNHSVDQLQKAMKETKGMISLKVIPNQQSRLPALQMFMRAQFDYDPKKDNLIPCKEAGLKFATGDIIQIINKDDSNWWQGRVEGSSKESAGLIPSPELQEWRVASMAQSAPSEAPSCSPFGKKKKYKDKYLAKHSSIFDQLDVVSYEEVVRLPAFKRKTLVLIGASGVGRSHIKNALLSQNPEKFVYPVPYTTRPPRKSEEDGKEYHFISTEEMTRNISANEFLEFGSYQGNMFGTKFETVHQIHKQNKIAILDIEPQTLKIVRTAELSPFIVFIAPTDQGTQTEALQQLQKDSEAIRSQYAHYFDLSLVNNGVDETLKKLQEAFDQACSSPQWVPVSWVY
In words: MPP1 protein expression (immunoblot). It is filed as cell-based. The conditions noted are these: Antimycin A treatment; Meg01 cells (Supplementary Fig. 6e), in words. The source says:
Forty-eight hours after transfection, cells were trypsinized and washed twice in PBS. Cells were lysed in MPER lysis buffer (Pierce) containing 1× protease inhibitor cocktail (Roche). Cell lysates were subjected to three rounds of sonication on ice with a minimum of 15 s of sonication per round. Protein concentration of the lysates was quantified using a Bradford assay (Biorad). Twenty-five micrograms of total protein lysates were loaded and separated by SDS-PAGE on a 10% gel. Proteins were then transferred to a nitrocellulose membrane (GE Healthcare) and probed with antibodies directed against various proteins of interest. The levels of pAcGFP-tagged ABCC4 and ABCC4ΔC were determined using the polyclonal full-length GFP antibody (1:2000, Santa Cruz). The level of MPP1 was detected using the monoclonal p55/MPP1 antibody (1:2500) from Epitomics. Where specified, the levels of ABCC4 were detected by using the rat monoclonal M4I10 antibody (1:2000, Abcam). An anti-Actin antibody was used as a loading control (1:10,000). Secondary antibodies conjugated to HRP (1:2000, GE Healthcare) were used. For co-immunoprecipitation experiments, light chain-specific secondary antibodies (1:5000, Jackson Immunoresearch) was used to prevent cross-contamination with heavy chain antibodies. The Clarity chemiluminescence (BioRad) reagent was used to detect the proteins. […]
A general note: Immunoblotting shows a protein as a band on a membrane.

The subject of assay [1] is mitochondrial complex III. Details: method as in PMID 6257713. Particulars: in words; cited from earlier work.
Procedure: Among the 11,297 chemicals tested, 219 of them (144 unique molecules) had >30% inhibition and were selected for further dose-response analysis using 10 concentrations ranging from 3.5 nM to 70 μM.
The test system of assay [2] is ABCC4 at the plasma membrane. The assay can be described thus: Surface biotinylation of ABCC4. Particulars: Antimycin A, Fig. 6f, in words. It is filed as cell-based. As for the experimental part:
MO7e, Meg01, or transfected HEK293 cells were treated with trypsin, washed in PBS (pH 8) and incubated with 0.8 mM EZ-Link Sulfo-NHS-SS-Biotin (Pierce) solution for 30 min at room temperature with gentle agitation. Following incubation, the biotin molecules were quenched with 25 mM tris (pH 8) solution containing 0.1 M glycine before cell lysis using MPER (Thermo Scientific) containing a protease inhibitor cocktail (Roche). A volume of 20 µl of the lysate was removed for the total lysate control and the remaining lysate was incubated with avidin-agarose beads (Pierce) for 18 h on a rotatory shaker at 4 °C. The agarose beads attached to cell surface proteins were then separated from the lysate containing cytosolic proteins by centrifugation and the three samples (input, supernatant and pellet) were analyzed by immunoblotting.

Assay [3] deals with T2, ABCC4-PDZ motif and MPP1 interaction (Homo sapiens, UniProt O15439+Q00013).
T2 sequence (Q00013 1-466): T1 sequence (Q00013 1-466)
T2 sequence (O15439 1301-1325): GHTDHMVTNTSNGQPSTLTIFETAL
In words: biochemical. The conditions noted are these: for IC50: 10 concentrations 3.5 nM to 70 μM.

Molecules are shown by their SMILES. Entries after “also recorded” stand apart in the source; their conditions may differ. Like-named read-outs stand apart in the source and are kept apart here.

In the case of `CCCCCC[C@H]1C(=O)O[C@H](C)[C@H](NC(=O)c2cccc(NC=O)c2O)C(=O)O[C@@H](C)[C@@H]1OC(=O)CC(C)C` [Antimycin A], the “effect on protein expression of MPP1” value on MPP1 is “unchanged; also recorded: does not reduce the protein expression of MPP1”. For the same molecule, the “mitochondrial complex III inhibition” value in assay [1] was “mitochondrial complex III inhibitor at micromolar concentration”. In assay [2], the “surface / plasma membrane ABCC4” value is “reduces ABCC4 at the plasma membrane”. In addition, the IC50 (in general, the concentration that gives 50% inhibition) in assay [3] (500 nM B-ABCC4, 5 nM His-S-MPP1, 0.7% DMSO, read-out: IC50 for complex disruption (TR-FRET)) is around 3 nM; in assay [3] (figure value, 500 nM B-ABCC4, 5 nM His-S-MPP1, triplicate, read-out: IC50 for disruption of MPP1 and ABCC4 interaction (TR-FRET)) it was 3.9 nM. Also, in assay [3] (in words), the “TR-FRET dose response / disruption of interaction” value is reported as “the most potent”.

Values taken from publication PMC5691054, “An unexpected protein interaction promotes drug resistance in leukemia” (Nature Communications, 2017).
